Test results as given in US7880007B2, “Bicyclic substituted phenyl piperidine modulators of muscarinic receptors” (Vertex Pharmaceuticals Incorporated, priority 2004, dated 2011).

Assays:
Assay type in all cases: cell-based
M1 muscarinic receptor = target: T1, M1 muscarinic receptor (Homo sapiens, UniProt P11229); test: Functional mobilization of intracellular calcium (FLIPR), M1-CHO cells
T1 construct: expressed in transfected cells; host or cells: CHO (M1-CHO)
T1 sequence (P11229 1-460): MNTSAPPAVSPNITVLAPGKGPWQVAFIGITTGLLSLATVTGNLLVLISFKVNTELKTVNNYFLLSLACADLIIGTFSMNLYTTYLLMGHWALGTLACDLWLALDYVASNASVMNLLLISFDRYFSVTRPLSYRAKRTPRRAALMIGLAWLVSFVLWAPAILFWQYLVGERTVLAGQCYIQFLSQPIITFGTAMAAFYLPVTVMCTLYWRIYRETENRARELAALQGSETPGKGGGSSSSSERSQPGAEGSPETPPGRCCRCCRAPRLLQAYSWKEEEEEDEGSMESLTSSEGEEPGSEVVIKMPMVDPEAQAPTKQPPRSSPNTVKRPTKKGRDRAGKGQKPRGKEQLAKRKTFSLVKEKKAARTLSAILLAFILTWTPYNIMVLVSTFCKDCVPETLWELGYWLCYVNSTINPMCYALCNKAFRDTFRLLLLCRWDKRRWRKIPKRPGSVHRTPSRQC
In short: (§1)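 CHO cells expressing human M1–M4 receptors loaded with Fluo-3 AM or Calcium 3 dye (1 mM probenecid, pH 7.4); 0.5% DMSO final. Agonist mode: compound added directly; antagonist mode: 15 min pre-incubation or co-application, then carbachol at EC80. Fluorescence read 60 s on FLIPR; efficacy relative to carbachol maximum.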

M2 muscarinic receptor = target: T2, M2 muscarinic receptor (Homo sapiens, UniProt P08172); test: Functional mobilization of intracellular calcium (FLIPR), M2-CHO cells
T2 construct: expressed in transfected cells; host or cells: CHO (M2-CHO)
T2 sequence (P08172 1-466): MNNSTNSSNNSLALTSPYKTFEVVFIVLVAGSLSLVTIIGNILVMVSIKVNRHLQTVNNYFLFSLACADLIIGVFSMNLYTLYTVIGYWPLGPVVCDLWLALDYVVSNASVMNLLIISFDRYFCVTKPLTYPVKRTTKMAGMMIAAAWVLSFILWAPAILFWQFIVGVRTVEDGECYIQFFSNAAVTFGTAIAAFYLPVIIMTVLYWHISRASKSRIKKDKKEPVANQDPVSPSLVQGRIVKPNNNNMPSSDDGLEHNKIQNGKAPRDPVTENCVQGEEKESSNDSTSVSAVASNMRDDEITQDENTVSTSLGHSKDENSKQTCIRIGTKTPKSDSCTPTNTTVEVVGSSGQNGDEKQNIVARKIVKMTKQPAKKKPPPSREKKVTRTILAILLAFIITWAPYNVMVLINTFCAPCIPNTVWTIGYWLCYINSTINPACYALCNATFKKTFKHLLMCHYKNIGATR
In short: as §1

M3 muscarinic receptor = target: T3, M3 muscarinic receptor (Homo sapiens, UniProt P20309); test: Functional mobilization of intracellular calcium (FLIPR), M3-CHO cells
T3 construct: expressed in transfected cells; host or cells: CHO (M3-CHO)
In short: as §1

M4 muscarinic receptor = target: T4, M4 muscarinic receptor (Homo sapiens, UniProt P08173); test: Functional mobilization of intracellular calcium (FLIPR), M4-CHO cells
T4 construct: expressed in transfected cells; host or cells: CHO (M4-CHO)
T4 sequence (P08173 1-479): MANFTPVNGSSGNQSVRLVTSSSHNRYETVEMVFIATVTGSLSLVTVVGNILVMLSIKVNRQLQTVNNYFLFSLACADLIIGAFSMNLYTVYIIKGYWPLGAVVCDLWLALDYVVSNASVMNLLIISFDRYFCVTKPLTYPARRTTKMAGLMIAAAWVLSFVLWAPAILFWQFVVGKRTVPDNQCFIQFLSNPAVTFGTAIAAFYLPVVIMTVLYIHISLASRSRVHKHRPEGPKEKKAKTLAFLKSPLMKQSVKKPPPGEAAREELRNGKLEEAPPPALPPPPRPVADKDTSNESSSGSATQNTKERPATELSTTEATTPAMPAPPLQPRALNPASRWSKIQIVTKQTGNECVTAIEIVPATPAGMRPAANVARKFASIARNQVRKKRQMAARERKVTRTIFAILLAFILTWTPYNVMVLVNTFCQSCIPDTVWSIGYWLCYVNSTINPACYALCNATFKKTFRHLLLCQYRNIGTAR
In short: as §1

[1] = 100% efficacy is the maximum response obtained with the Carbachol control

T3 sequence (P20309 whole entry): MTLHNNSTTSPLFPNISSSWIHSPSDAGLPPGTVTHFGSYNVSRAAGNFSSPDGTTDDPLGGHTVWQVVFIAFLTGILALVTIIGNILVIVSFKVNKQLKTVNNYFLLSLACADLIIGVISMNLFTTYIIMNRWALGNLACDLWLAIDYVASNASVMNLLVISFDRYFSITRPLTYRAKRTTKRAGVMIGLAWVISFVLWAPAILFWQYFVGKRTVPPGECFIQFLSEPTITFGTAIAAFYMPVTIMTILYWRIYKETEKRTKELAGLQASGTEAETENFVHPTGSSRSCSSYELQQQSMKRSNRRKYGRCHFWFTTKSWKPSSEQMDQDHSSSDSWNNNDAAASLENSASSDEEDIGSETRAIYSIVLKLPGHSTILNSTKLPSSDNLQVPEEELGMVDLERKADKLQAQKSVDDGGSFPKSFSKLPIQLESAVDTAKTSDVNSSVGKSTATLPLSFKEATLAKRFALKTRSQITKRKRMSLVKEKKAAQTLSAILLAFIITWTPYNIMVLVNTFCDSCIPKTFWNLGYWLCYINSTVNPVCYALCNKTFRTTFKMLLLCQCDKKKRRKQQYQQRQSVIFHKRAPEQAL

Emax (M1 muscarinic receptor; [1]): 25 to 100%
Emax (M2 muscarinic receptor; [1]): 25 to 100%
Emax (M3 muscarinic receptor; [1]): < 25%
Emax (M4 muscarinic receptor; [1]): 25 to 100%
SMILES: Cc1ccc(F)cc1C1CCN(CC2C[C@H]3CC[C@H]2C3)CC1 (some centres unmarked) [Compound 424]
M1 Activity (M1 muscarinic receptor; M1-CHO cells, calcium mobilization (FLIPR)): ++ (activity was measured to be from 1.0 μM to 5.0 μM)
M2 Activity (M2 muscarinic receptor; M2-CHO cells, calcium mobilization (FLIPR)): ++ (activity was measured to be from 1.0 μM to 5.0 μM)
M3 Activity (M3 muscarinic receptor; M3-CHO cells, calcium mobilization (FLIPR)): + (activity was measured to be greater than 5.0 μM)
M4 Activity (M4 muscarinic receptor; M4-CHO cells, calcium mobilization (FLIPR)): +++ (activity was measured to be less than 1.0 μM)
